Results taken from US20170143712A1, “Methods of Treating Cancers, Immune and Autoimmune Diseases, and Inflammatory Diseases Based on BTK Occupancy and BTK Resynthesis Rate” (Acerta Pharma B.V., priority 2014, published 2017).
“Also recorded” adds a separate entry of the source. Where two headings read alike, the source gives them in different places.

Experiments:
BTK [1] = target: T1, BTK (Homo sapiens, UniProt Q06187); experiment: Intracellular total BTK protein in peripheral blood B lymphocytes of healthy volunteers (flow cytometry); assay type: in vivo
T1 sequence (Q06187 whole entry): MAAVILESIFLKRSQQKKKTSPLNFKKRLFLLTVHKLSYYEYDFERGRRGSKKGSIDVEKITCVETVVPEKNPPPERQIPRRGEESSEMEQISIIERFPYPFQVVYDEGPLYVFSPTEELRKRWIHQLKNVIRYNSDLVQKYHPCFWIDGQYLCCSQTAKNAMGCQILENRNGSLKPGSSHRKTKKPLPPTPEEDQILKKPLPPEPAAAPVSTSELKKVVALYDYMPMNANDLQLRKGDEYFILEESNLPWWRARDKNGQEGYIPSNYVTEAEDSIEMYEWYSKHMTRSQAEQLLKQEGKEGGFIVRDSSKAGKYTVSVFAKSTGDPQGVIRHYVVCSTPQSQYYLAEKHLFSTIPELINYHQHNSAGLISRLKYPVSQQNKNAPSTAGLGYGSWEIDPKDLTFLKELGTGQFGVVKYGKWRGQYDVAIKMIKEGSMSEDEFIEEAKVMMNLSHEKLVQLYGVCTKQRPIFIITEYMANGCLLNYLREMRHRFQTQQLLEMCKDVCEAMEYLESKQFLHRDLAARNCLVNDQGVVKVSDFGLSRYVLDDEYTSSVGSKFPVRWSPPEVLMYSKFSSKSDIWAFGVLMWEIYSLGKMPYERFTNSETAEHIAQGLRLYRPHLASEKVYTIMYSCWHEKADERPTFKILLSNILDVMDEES
Description: The percentage of pre-study BTK protein level was determined in cryopreserved B cells by flow cytometry analysis of Mean Fluorescence Intensity.

BTK [2] = target: T1, BTK; experiment: p-BTK after ex vivo BCR stimulation in CD19+/CD5+ CLL tumor cells (phospho-flow cytometry); conditions: CLL patients on oral treatment
[3] = tested on: established type II collagen-induced arthritis (CIA) in DBA/1 mice; experiment: Mouse established CIA, dosing from arthritis day 8, QD or BID (Example 11); assay type: in vivo; conditions: for AUC (All Paws) - Corrected for Initial Score / Change in Body Weight (g) Days 1-19 / Histopathology Summed Score Knees / Histopathology Summed Score Paws / Histopathology Summed Score Six-Joints / Paw Score AUC (All Paws): mean(SE)
Text: A study was designed to determine the efficacy of a covalently acting BTK inhibitor, Formula (II) in inhibiting acute inflammation, pannus formation, cartilage destruction, and bone resorption associated with established type II collagen-induced arthritis (CIA) in DBA/1 mice. Immunization with heterologous type II collagen (CII) induces arthritis in mice of the DBA/1 strain, which is genetically susceptible to this disease. To develop an experimental model of autoimmunity more adequate for the study of human rheumatoid arthritis (RA), male DBA/1 mice were injected intradermally (ID) with bovine type II collagen to induce arthritis as reported by Trentham et al (Trentham D E, Townes A S, Kang A H Autoimmunity to type II collagen: an experimental model of arthritis. J. Exper. Med. 1977, 146:857-868) and Bendele A (Bendele A, Animal models of rheumatoid arthritis. J. Musculoskelet. Neuronal Interact. 2001, 1(4):377-85).
Following acclimatization, 6-7 week old male DBA/1 mice (n=10/group for arthritis) were immunized at the base of the tail, with 150 μL of Freund's Complete Adjuvant (Difco, Detroit, Mich.) containing 1 mg/mL bovine type II collagen by intradermal injection. Immunizations were performed day 0 and again on day 21. On study days 25-26, on day 8 following onset of arthritis, the mice were randomized into treatment groups. […] Dosing began on arthritis day 8 by oral gavage. Groups were treated with vehicle (0.4% HPMC, 0.2% Tween 80), Formula (II) at 25 mg/kg QD, Formula (II) at 12.5 mg/kg BID, or the reference compound dexamethasone (Dex) at 0.2 mg/kg QD. These animals were fasted overnight on arthritis day 20 (13 days after enrollment) prior to necropsy on arthritis day 21. Clinical scores were given for each of the paws (right front, left front, right rear, left rear) on arthritis days 1-21.
Efficacy evaluation was based on animal body weights, clinical arthritis scores, arthritis scores expressed as area under the curve (AUC), and histopathology on fore paws, hind paws, and knees. Histopathology results were expressed as 4 paws, knees only, or 6 joints (knees included). Day 19 was used as the endpoint for analysis of body weight change since the male DBA/1 mice were fasted overnight prior to necropsy on day 21.
Necropsies were conducted on fasted mice and terminal serum, fore paws, hind paws, and knees were collected into 10% neutral buffered formalin (NBF) for microscopy. Spleens were harvested and weighed.

BTK [4] = target: T1, BTK; experiment: BTK occupancy in PBMCs / peripheral blood B lymphocytes of healthy volunteers (active-site probe ELISA); assay type: in vivo; conditions: for receptor occupancy at 15 mg: human
Description: The presence of inactivated BTK in peripheral blood B lymphocytes was measured using a BTK active-site specific probe in an ELISA assay and expressed as a percentage of pre-study levels.
A Phase 1, single-center, open-label, single-treatment study in healthy volunteers was conducted to assess the BTK occupancy of Formula (II) after multiple-dose administration in healthy adult subjects under fasting conditions. The study primarily focused on characterizing the pharmacodynamics (PD) of Formula (II) by assessing the BTK occupancy profile of Formula (II) in peripheral blood mononuclear cells (PBMCs) and by measuring the expression of lymphocyte B activation markers, CD69 and CD86, during and after multiple oral dose administration of 15 mg daily in healthy subjects. As a secondary objective, the study evaluated the pharmacokinetic (PK) profile, safety, and tolerability after multiple-dose administrations of Formula (II) in the healthy subjects. Moreover, the study determined the effects of Formula (II) on peripheral blood T cells and myeloid-derived suppressor cells (MDSCs).
Forty, healthy adult, non-tobacco using men and women were enrolled in the study. A 15 mg Formula (II) dose (1×15 mg capsule) was administered once daily (QD) to each subject for 7 consecutive days (Days 1 to 7) with a washout period (6 days). PD blood samples were collected from each subject before dosing on Day 1, throughout the study, and up to 144 hours after dosing on Day 7 to characterize Formula (II) PD effects. PK sampling for Formula (II) was also collected before dosing on Day 1, throughout the study, and for 24 hours after dosing on Day 7. Additionally, potential Formula (II) safety issues were monitored through physical examination, vital sign measurements, 12 lead electrocardiograms (ECGs), AEs and clinical laboratory tests.
The occupancy of BTK by Formula (II) was measured in PBMCs with the aid of a biotin tagged Formula (II) analogue probe. The effect of Formula (II) on functional activation of B cells following BCR stimulation (measured via the phorphorylation of BTK and upregulation of CD69 and CD86 activation markers) was also evaluated.

BTK [5] = target: T1, BTK; experiment: BTK target occupancy in CD5+/CD19+ tumor cells of relapsed/refractory CLL patients; assay type: in vivo
Description: Peripheral blood samples were obtained over time and BTK target occupancy was evaluated using a BTK active-site specific probe in an ELISA assay.

## CC#CC(=O)N1CCC[C@H]1c1nc(-c2ccc(C(=O)Nc3ccccn3)cc2)c2c(N)nccn12 [Formula (II), (S)-4-(8-amino-3-(1-(but-2-ynoyl)pyrrolidin-2-yl)imidazo[1,5-a]pyrazin-1-yl)-N-(pyridin-2-yl)benzamide]
BTK [1]; 15 mg QD x 7 days, after 48 hours (between Day 2 and Day 3)
  intracellular total BTK protein level in B lymphocytes: Decreased BTK levels; also recorded: decrease
BTK [1]; 15 mg QD, after the initial dose
  intracellular total BTK protein level in B lymphocytes: increased
BTK [2]
  BCR-mediated signaling through BTK (p-BTK after ex vivo BCR stimulation): significantly inhibited; also recorded: decreased BTK activation
[3]; 12.5 mg/kg BID
  Clinical arthritis score AUC (d8-d21), reduction vs vehicle controls: 59%
  absolute spleen weights, reduction vs vehicle controls: 64%
  knee bone resorption, reduction vs vehicle controls: 78%
  knee inflammation, reduction vs vehicle controls: 49%
  knee pannus formation, reduction vs vehicle controls: 80%
  six joint histopathology, reduction of summed scores: 53%
  summed knee scores, reduction vs vehicle controls: 45%
[3]; 12.5 mg/kg BID, p<0.05 on days 9-21
  arthritis scores measured daily vs vehicle controls: significantly reduced toward normal
[3]; 12.5 mg/kg PO BID
  AUC (All Paws) - Corrected for Initial Score: *−23.05(2.58)
  Change in Body Weight (g) Days 1-19: †0.64(0.69) g
  Histopathology Summed Score Knees: *6.73(0.60)
  Histopathology Summed Score Paws: *7.49(1.03)
  Histopathology Summed Score Six-Joints: *7.23(0.77)
  Paw Score AUC (All Paws): *22.45(2.68)
[3]; 25 mg/kg PO QD
  AUC (All Paws) - Corrected for Initial Score: *−24.48(3.85)
  Change in Body Weight (g) Days 1-19: 2.37(0.28) g
  Histopathology Summed Score Knees: *6.00(0.76)
  Histopathology Summed Score Paws: *7.11(0.98)
  Histopathology Summed Score Six-Joints: *6.74(0.80)
  Paw Score AUC (All Paws): *23.63(3.37)
[3]; 25 mg/kg QD
  Clinical arthritis score AUC (d8-d21), reduction vs vehicle controls: 56%
  knee bone resorption, reduction vs vehicle controls: 82%
  knee cartilage damage, reduction vs vehicle controls: 28%
  knee inflammation, reduction vs vehicle controls: 53%
  knee pannus formation, reduction vs vehicle controls: 82%
  six joint histopathology, reduction of summed scores: 56%
  summed knee scores, reduction vs vehicle controls: 51%
[3]; 25 mg/kg QD or 12.5 mg/kg BID, DBA/1 mice
  tolerability: well tolerated
[3]; 25 mg/kg QD, p<0.05 on days 11-21
  arthritis scores measured daily vs vehicle controls: significantly reduced toward normal
BTK [4]; 15 mg QD, Days 1 and 2, initial post-dose rate
  estimated half-life of occupied BTK (BTK resynthesis t1/2): 20 h
BTK [4]; after 7 days dosing with 15 mg, and after a 25 mg BID dose
  modeled rate of BTK resynthesis (t1/2): 119 h
BTK [4]; after discontinuation of 15 mg QD x 7 days at steady state, later rate
  estimated half-life of occupied BTK (BTK resynthesis t1/2): 119 h
BTK [4]; early doses of 15 mg QD, or a single 25 mg QD dose
  modeled rate of BTK resynthesis (t1/2): 20 h
BTK [4]; 15 mg QD for 7 days, read-out: peak BTK occupancy at steady state
  receptor occupancy at 15 mg: > 90%
BTK [4]; 15 mg QD, Days 1 and 2, read-out: BTK target occupancy at the end of the dosing interval
  receptor occupancy at 15 mg: ~60%
BTK [5]; 100 mg BID compared with any QD dosing schedule
  percentage BTK occupancy: higher percentage BTK occupancy
BTK [5]; 100 mg QD compared with 100 mg BID
  resynthesis of BTK in CLL tumor cells: more rapid than after 100 mg BID dosing
BTK [5]; 3-4 hours post dose, all treated subjects
  BTK occupancy in peripheral blood compartment: full BTK occupancy
BTK [5]; total daily doses above 200 mg, once-daily or twice-daily
  BTK target occupancy in circulating tumor cells throughout the dosing interval: > 90%
